How the values were obtained:
[1] = molecular target: T1, APOL1 G2 (Homo sapiens, UniProt O14791, DEL388-389); test: APOL1 calcium transport inhibition assay (GCaMP6f calcium influx, FLIPR) in HEK T-REx/GCaMP6f/APOL1 G2 K6.3 cells; assay type: cell-based; conditions: inhibition of APOL1-mediated calcium influx; geometric mean of at least 2 assay runs, † = single assay run (technical duplicate)
T1 construct: expressed in transfected cells; host or cells: HEK293 T-REx clonal lines: HEK T-REx/GCaMP6f/APOL1 G2 K6.3 in A1, HEK293/T-REx APOL1 G2/clone #2 in A2
T1 sequence (O14791 with tags, fused parts or gaps DEL388-389): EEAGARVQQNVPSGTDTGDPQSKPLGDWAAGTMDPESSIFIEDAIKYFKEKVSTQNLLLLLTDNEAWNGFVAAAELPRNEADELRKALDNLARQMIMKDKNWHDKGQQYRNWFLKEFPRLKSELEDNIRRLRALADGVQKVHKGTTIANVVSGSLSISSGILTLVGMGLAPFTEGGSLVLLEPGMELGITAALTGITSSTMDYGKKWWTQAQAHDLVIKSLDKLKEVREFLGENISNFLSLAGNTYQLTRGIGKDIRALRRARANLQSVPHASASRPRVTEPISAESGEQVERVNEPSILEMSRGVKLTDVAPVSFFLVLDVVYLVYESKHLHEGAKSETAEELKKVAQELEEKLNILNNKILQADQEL
In short: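 HEK293 cells stably expressing GCaMP6f, APOL1 G2 induced 6 h with doxycycline (20 ng/mL added), then washed into Ca2+-free Tyrode's buffer pH 7.4. Compounds (8-point dose response) preincubated 10 min at room temperature, then Ca2+ injected to 5 mM final and influx read on FLIPR. AC50 reported as geometric mean of runs.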

[2] = molecular target: T1, APOL1 G2; test: Rescue of HEK293 cell death caused by overexpression of APOL1 (CellTiter-Glo luminescence), HEK293/T-REx APOL1 G2/clone #2; assay type: cell-based; conditions: reversal of cell death caused by overexpression of APOL1; geometric mean of at least 2 assay runs, † = single assay run (technical duplicate)
In short: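 Rescue EC50s come from four-parameter logistic fits, geometric mean of at least 2 runs on separate days, each in duplicate. Readout: CellTiter-Glo luminescence after 17 h at 37 °C of 5,000 HEK293/T-REx APOL1 G2 clone #2 cells/well, with 6 ng/mL doxycycline to induce APOL1 and 3-fold serial compound dilutions in 0.5% DMSO.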

Row | SMILES | AC50 [1] | EC50 [2]
1 | C[C@@H]1CN(CC(O)c2cc(C#N)cc(C#N)c2)C[C@H]1COc1ccc(S(C)(=O)=O)cc1 (single isomer, unassigned) [Compound 131, 5-[(1S or 1R)-1-hydroxy-2-[(35,4S)-3-[(4-methanesulfonylphenoxy)methyl]-4-methylpyrrolidin-1-yl]ethyl]benzene-1,3-dicarbonitrile] | 394 nM | 460 nM
2 | CN(c1ccc(OC[C@@H](O)CN2CCOC(c3cccc(Cl)c3)C2)cc1)S(C)(=O)=O (single isomer, unassigned) [Compound 81, N-(4-((S)-3-((S) or (R)-2-(3-chlorophenyl)morpho-lino)-2-hydroxypropoxy)phe-nyl)-N-methylmethanesulfon-amide] | > 25000 nM | > 30000 nM
3 | CN(c1ccc(OC[C@@H](O)CN2CCC(c3cccc(Cl)c3)C2(C)C)cc1)S(C)(=O)=O (single isomer, unassigned) [Compound 70, N-(4-((R)-(S)-3-((R) or (S)-3-(3-chlorophenyl)-2,2-dimethylpyrrolidin-1-yl)-2-hydroxypropoxy)phe-nyl)-N-methylmethanesulfon-amide] | 295 nM | 303 nM
4 | CC1CC(COc2ccc(S(C)(=O)=O)cc2)CN1CCc1cccc(C#N)c1 (single isomer, unassigned) [Compound 138, 3-{2-[(2R,4S or 2S,4R or 2R,4R or 2S,4S)-4-[(4-methanesulfon-ylphenoxy)meth-yl]-2-methyl-pyrrolidin-1-yl]-ethyl}benzo-nitrile] | 2500 nM | 1970 nM
5 | CC1CC(COc2ccc(S(C)(=O)=O)cc2)CN1CCc1cccc(Cl)c1 (single isomer, unassigned) [Compound 53, rac-trans or cis-1-(3-chlorophenethyl)-2-methyl-4-((4-(methylsulfonyl)phenoxy)methyl)pyrrolidine] | 856 nM | 1120 nM
6 | C[C@@H]1CN(CCc2cccc(Cl)c2)C[C@H]1COc1ccc(S(=O)(=O)CCO)cc1 (single isomer, unassigned) [Compound 113, 2-(4-{[(35,4S or 3R,4R)-1-[2-(3-chlorophenyl)ethyl]-4-methylpyrrolidin-3-yl]methoxy}benzene-sulfonyl)ethan-1-ol] | 907 nM | 1070 nM
7 | CC(CN1C[C@@H](COc2ccc(S(C)(=O)=O)cc2)[C@H](C)C1)c1cc(Cl)cc(C#N)c1 (single isomer, unassigned) [Compound 148, 3-chloro-5-[(2S or 2R)-1-[(3S, 4S)-3-[(4-meth-anesulfonylphen-oxy)methyl]-4-methylpyrroli-din-1-yl]propan-2-yl]benzonitrile] | 615 nM | 80.8 nM
8 | COC1CCN(CCc2cccc(Cl)c2)CC1COc1ccc(S(C)(=O)=O)cc1 (single isomer, unassigned) [Compound 35, (3S,4R) or (3R,4R) or (3S,4S) or (3R,4S)-1-(3-chlorophenethyl)-4-methoxy-3-((4-(methylsulfonyl)phenoxy)methyl)piperidine] | 3780 nM | 6130 nM
9 | CS(=O)(=O)c1ccc(OCC2CN(CCc3cccc(Cl)c3)CCC2O)cc1 (single isomer, unassigned) [Compound 29, (3S,4R) or (3R,4R) or (3S,4S) or (3R,4S)-1-(3-chlorophenethyl)-3-((4-(methylsulfonyl)phenoxy)methyl)piperidin-4-ol] | 1980 nM | > 12200 nM
10 | CN(c1ccc(OC[C@@H](O)CN2CCOC(c3cccc(Cl)c3)C2)cc1)S(C)(=O)=O (stereo partly drawn) [Compound 80, N-(4-((2S)-3-(2-(3-chlorophenyl)morpho-lino)-2-hydroxypropoxy)phe-nyl)-N-methylmethanesulfon-amide] | 13900 nM | 13000 nM
11 | CS(=O)(=O)c1ccc(OCC2CCCCN(CCc3cccc(Cl)c3)C2)cc1 (single isomer, unassigned) [Compound 3, (S) or (R)-1-(3-chlorophenethyl)-3-((4-(methylsulfonyl)phenoxy)methyl)azepane] | 205 nM | 295 nM
12 | C[C@@H]1C[C@H](COc2ccc(S(C)(=O)=O)cc2)CN1CC(O)c1cc(C#N)cc(C#N)c1 (single isomer, unassigned) [Compound 119, 5-[(1S or 1R)-1-hydroxy-2-[(2R,4S)-4-[(4-methanesulfonylphenoxy)methyl]-2-methylpyrrolidin-1-yl]ethyl]benzene-1,3-dicarbonitrile] | 784 nM | 133 nM
13 | C[C@@H]1CN(CCc2cccc(Cl)c2)C[C@H]1COc1ccc(S(C)(=O)=O)cc1 [Compound 133, (35,4S)-1-[2-(3-chlorophenyl)ethyl]-3-[(4-methanesulfonylphenoxy)methyl]-4-methylpyrrolidine] | 38.3 nM | 135 nM
14 | CN=S(C)(=O)c1ccc(OC[C@H]2C[C@@H](C)N(CCc3cccc(C#N)c3)C2)cc1 (stereo partly drawn) [Compound 157, 3-[2-[(2R,4S)-2-methyl-4-({4-[methyl(methyli-mino)oxo-λ^6-sulfanyl]phenoxy}methyl)pyrrolidin-1-yl]ethyl}benzonitrile] | 441 nM | 38.9 nM
15 | CN(c1ccc(OC[C@@H](O)CN2CCOC(c3cccc(Cl)c3)C2)cc1)S(C)(=O)=O (single isomer, unassigned) [Compound 82, N-(4-((S)-3-((R) or (S)-2-(3-chlorophenyl)morpho-lino)-2-hydroxypropoxy)phe-nyl)-N-methylmethanesulfon-amide] | 4350 nM | > 24300 nM
16 | C[C@@H]1C[C@H](COc2ccc(S(C)(=O)=O)cc2)CN1CC(O)c1cc(C#N)cc(C#N)c1 (single isomer, unassigned) [Compound 118, 5-[(1R or 1S)-1-hydroxy-2-[(2R,4S)-4-[(4-methanesulfonylphenoxy)methyl]-2-methylpyrrolidin-1-ylethyl]benzene-1,3-dicarbonitrile] | 936 nM | 4040 nM
17 | CN(c1ccc(OC[C@H](O)CN2CCC(c3cccc(Cl)c3)C2(C)C)cc1)S(C)(=O)=O (single isomer, unassigned) [Compound 73, N-(4-((R)-3-((R) or (S)-3-(3-chlorophenyl)-2,2-dimethylpyrrolidin-1-yl)-2-hydroxypropoxy)phe-nyl)-N-methylmethanesulfon-amide] | 3060 nM | > 17800 nM

Further lines, with some results ahead:

Row | AC50 [1] | SMILES | EC50 [2]
18 | 511 nM | CN=S(C)(=O)c1ccc(OC[C@@H]2CN(CCc3cc(Cl)cc(C#N)c3)CCN2)cc1 (single isomer, unassigned) [Compound 188, 3-chloro-5-{2-[(3S)-3-({4-[(R or S)-methyl(methyl-imino)oxo-λ^6-sulfanyl]pheno-xy}methyl)piper-azin-1-yl]ethyl}benzo-nitrile] | 303 nM
19 | 314 nM | C[C@@H]1CN(CCc2cc(Cl)cc(C#N)c2)C[C@H]1COc1ccc(S(=O)(=O)CCCS(C)(=O)=O)cc1 [Compound 167, 3-chloro-5-{2-[(3S,4S)-3-{[4-(3-methanesulfonylpro-panesulfonyl)phe-noxy]methyl}-4-methylpyrrolidin-1-yl]ethyl}benzonitrile] | 67.2 nM
20 | 63 nM | C[C@H]1CN(CCc2cccc(Cl)c2)C[C@@H]1COc1ccc(S(=O)(=O)CCCS(C)(=O)=O)cc1 (single isomer, unassigned) [Compound 176, (3R,4R or 3S,4S)-1-[2-(3-chlorophenyl)eth-yl]-3-{[4-(3-methanesulfonylpro-panesulfonyl)phe-noxy]methyl}-4-methylpyrrolidine] | < 47.2 nM
21 | 1150 nM | C[C@@H]1CN(CCc2cccc(S(F)(F)(F)(F)F)c2)C[C@H]1COc1ccc(S(C)(=O)=O)cc1 [Compound 163, (3S,4S)-3-[(4-methanesulfonylphenoxy)methyl]-4-methyl-1-{2-[3-(pentafluoro-λ^6-sulfanyl)phenyl]ethyl}pyrrolidine] | > 385 nM
22 | 898 nM | C[C@]1(O)CN(CCc2cccc(Cl)c2)C[C@H]1COc1ccc(S(C)(=O)=O)cc1 (single isomer, unassigned) [Compound 210, (3S,4R or 3R,4S)-1-[2-(3-chlorophenyl)ethyl]-4-[(4-methanesulfonylphenoxy)methyl]-3-methylpyrrolidin-3-ol] | 3120 nM
23 | 104 nM | C[C@@H]1CN(CCc2cccc(C#N)c2)C[C@H]1COc1ccc(S(=O)(=O)C2CNC2)cc1 [Compound 172, 3-{2-[(3S,4S)-3-{[4-(azetidine-3-sulfonyl)phenoxy]methyl}-4-methylpyrrolidin-1-yl]ethyl}benzonitrile] | 203 nM
24 | 2550 nM | CC1CNC(COc2ccc(S(C)(=O)=O)cc2)CN1CCc1cccc(Cl)c1 (single isomer, unassigned) [Compound 212, rac-cis or trans-(2R,5S)-1-[2-(3-chlorophenyl)ethyl]-5-[(4-methanesulfonylphenoxy)methyl]-2-methylpiperazine] | > 14300 nM

— US20240316038A1, “APOL1 INHIBITORS AND METHODS OF USE” (Maze Therapeutics, Inc., priority 2021, published 2024)
